The record followed here is patent US20220296535A1, “Antibacterial Dosage Regime Using Cannabinoids” (Botanix Pharmaceuticals Limited, priority 2019, published 2022).

≈ marks a conversion by molar mass, not a printed value. Where two headings read alike, the source gives them in different places.

In data set [1] the test system is S. aureus ATCC 43300. Briefly: Anaerobic MIC micro-broth dilution. Format: cell-based, Staphylococcus aureus. The conditions noted are these: S. aureus ATCC 43300, anaerobic chamber, BHI, 48 h. (In general: Dilution methods test growth across graded concentrations, often in twofold steps.)
Data set [2] has as its system A. acidipropionici ATCC 25562. The data set can be described thus: Anaerobic MIC micro-broth dilution. Format: cell-based, Acidipropionibacterium acidipropionici. The conditions noted are these: A. acidipropionici ATCC 25562, anaerobic chamber, BHI, 48 h.
Data set [3] deals with S. aureus MSSA (26 strains). Briefly: MIC50/MIC90 micro-broth dilution, MSSA strains. As to conditions: Staphylococcus aureus, MSSA.
Data set [4] has as its system Staphylococcus aureus ATCC 43300 MRSA. The data set can be described thus: Forced evolution of resistance, 20 days serial passage and drug-free passages. In kind it is cell-based. As to conditions: for MIC: Staphylococcus aureus.
Method: The collaborator supplied sample as dry material. A stock solution at 10 mg/mL in neat DMSO was prepared.
The tested bacteria was Staphylococcus aureus ATCC 43300 MRSA (ID GP_020:02).
The mid log Staphylococcus aureus (ATCC 43300) growth culture was serially diluted and plated on a solid Tryptic Soy Agar (TSA) plates in duplicates and incubated at 37° C. overnight to determine viable colony count.
Staphylococcus aureus (ATCC 43300) was cultured in CaMHB at 37° C. overnight, then diluted 40-fold and incubated at 37° C. for a further 2-3 h. […] The plate was covered and incubated at 37° C. for 20 h.
Plate well with the highest drug concentration that permitted growth was then diluted. Despite plates were read by eye, reading at OD600 on the Epoch microplate spectrophotometer was used to adjust growth density of each well (it was approximately 1:1000). Then, 100 μL of the bacteria diluted was added to the new MIC plate. The OD600 was used to calculate the dilution of cells to a density of 10^6 CFU/mL. Bacteria were diluted in CaMHB and 100 μL was added to each well of the next replicate passage. The final well volume was 200 μL with a cell density of 5×10^5 CFU/mL. Each replicate (row) was assess as different strain, for this reason the dilution was done for each replicate.
Once prepared, the plate was covered and incubated at 37° C. overnight. Plate reading, compound preparation and bacterial preparation were repeated from Day 2 to Day 20.
Depending on the MIC of the day before, CBD tested concentrations were established.
Depending on the MIC of the day before, CBD and daptomycin tested concentrations were established to ensure at least three concentrations above, and three concentrations below MIC, based on the previous MIC results. Compounds were prepared in Protein LoBind Eppendorf 1.5 mL safelock tubes, diluting 320 μg/mL stock in DMSO in CaMHB to achieve two-fold the desired testing concentrations. The 100 μL of the selected concentration were added to each well (See FIG. 1). […] It was incubated at 37° C. overnight. Next day the same procedure was repeated.
Following 20 days of passaging in the presence of CBD and daptomycin, each replicate was passaged for 4 days in drug-free media to assess the stability of any induced resistance.
Day 20 plate was read and the same bacterial preparation methodology was followed. Same concentrations used in day 20 for CBD were used for the 4 days drug free passages. […] These concentrations were used for the 4 days drug free passages. Column 11 was used as the drug-free passage well, and column 12 as a negative growth control with 200 μL uninoculated media in each well. Diluted bacteria were added to the plate, one replicate per row, 100 μL per well. The final well volume was 200 μL with a cell density of 5×10^5 CFU/mL in columns 1-11, and CBD concentration range from 16-0.03 μg/mL in columns 1-10 (FIG. 2).
Subsequent drug-free passage plates were prepared in the same manner, except each replicate bacteria was passaged from column 11, the drug-free growth control well.
Alongside the test plate, a culture of S. aureus was passaged for 24 days without CBD, to establish a baseline for non-selective mutations in the growth conditions described.
Six wells were used as a positive growth controls, and six as negative growth controls with uninoculated media.
Subsequent passages were inoculated from well H7. The bacterial growth in H7 was resuspended by pipetting, then plates were read for optical density by spectrophotometer (Biotek Epoch) at 600 nm (OD600). The OD600 was used to calculate the dilution of cells to a density of 10^6 CFU/mL. Bacteria were diluted in CaMHB and 50 μL was added to each well of the next passage.
A short description of data set [5]: Protein binding inferred from loss of activity in 50% human serum. In kind it is in vitro ADME. As to conditions: assuming 3% free responsible for activity. As for the experimental part: The compounds were serially diluted in mixture of 50% of human serum (Sigma; Cat. No. H3667-100ML) along with 50% Cation-adjusted Mueller Hinton Broth (CaMHB; BD, Cat. No. 212322) two-fold across the wells of polystyrene (PS) 96-well plates (Corning; Cat. No. 3370), plated in duplicate. All plates had flat bottom wells and were covered with low-evaporation lids.
All control antibiotics gave inhibitory values within the expected ranges.

In the case of `C=C(C)C1CCC(C)=CC1c1c(O)cc(CCCCC)cc1O` (stereo not shown) [Cannabidiol, 2-[3-methyl-6-(1-methylethenyl)-2-cyclohexen-1-yl]-5-pentyl-1,3-benzenediol], the MIC is 2/1 in data set [1] (listed as Cannabidiol (Batch 2)); “active” in data set [1] (listed as Cannabidiol (CBD)); “active” in data set [2]; 0.5 mg/L (≈ 1.59 µM) in data set [2] (Acidipropionibacterium acidipropionici, ATCC25562, read-out: MIC); 1 mg/L (≈ 3.18 µM) in data set [4] (216 h, read-out: measured MIC on Day 9); over 7 mg/L in data set [4] (312 h, read-out: MIC of replicate 1 at day 13). Also, the MIC in data set [4] (432 h, read-out: MIC of replicate 1 by day 18) is over 128 mg/L; in data set [4] (480 h, read-out: MIC through the 20 days of assay), 2 to 4 mg/L (≈ 6.36 to 12.7 µM); in data set [4] (read-out: MIC of replicates 2 and 8 on Days 20 and 21), 6 to 16 mg/L. The MIC50 in data set [3] was found to be 2 mg/L (≈ 6.36 µM). The molecule also had an MIC90 in data set [3] of 2 mg/L (≈ 6.36 µM). In data set [4] (replicate 1), the “MIC of replicate 1 before the increase” value worked out at 3.5 mg/L. This molecule displayed an unbound share (fraction unbound) in data set [5] of under 0.03.

One may read the MIC as the lowest concentration that inhibits growth of the organism. Broadly, the MIC50 is the lowest concentration that inhibits either 50% of growth or 50% of the strains tested, depending on the study. Low values mean higher susceptibility, high ones lower susceptibility. Usually MIC90 stands for an inhibitory concentration at the 90% level, which refers to growth in some studies and to a panel of isolates in others. Low readings indicate higher susceptibility, high ones lower susceptibility. One may read the fraction unbound as the share of the substance not bound to proteins or other matrix. Low values mean little free substance, high ones much free substance.
